From patent US10023587B2, “Oxabicycloheptanes and oxabicycloheptenes, their preparation and use” (LIXTE BIOTECHNOLOGY, INC., priority 2007, dated 2018)
“Also recorded” adds a separate entry of the source. Where two headings read alike, the source gives them in different places.

Assays:
GBM cell line U373 [1] = assay: Inhibition of growth of GBM cell line U373 by single agents (cell counts); type: cell-based, human; details: for Inhibition of growth of cell line U373 (in words): single agent; for IC50: U373, exposure for 7 days, estimated from graphic plots (FIG. 1), read-out: concentration that inhibited brain tumor cell proliferation by 50% (IC50)
Excerpt: From graphic plots of the glioblastoma multiforme GBM cell line U373 (available from the National Institute of Neurological Disorders and Stroke Molecular Pathogenesis Unit, Building 10, Room 5 D37, National Institutes of Health, 900 Rockville Pike, Bethesda, Md., 20892) as a function of exposure to different doses of drug for 7 days, the concentration of each compound that inhibited brain tumor cell proliferation by 50% (IC50) was estimated.
To identify novel therapeutic targets for the treatment of glioblastoma multiforme (GBM), cantharidin analogues were evaluated for their ability to inhibit growth of glioblastoma multiforme cells. Specifically, GBM cell line U373 was used in evaluations.
The total number of cells is counted in the triplicate cultures at each dose and in controls after 7 days and the average number of cells and the standard deviation is determined.
(§1) The amount of inhibition of GBM cell growth is expressed as the proportion of the number of cells in the experimental dishes compared to the number of cells in control dishes containing only the drug vehicle and culture medium. The average percent of control is plotted and bracketed by one standard deviation calculated from the triplicate measurements.
For all cell culture experiments, cells are allowed to grow in the presence or absence of different concentrations of drug or in the presence of the vehicle used to dissolve the drug, PBS for compound 100 and DMSO for compound 102. Cell counts are done in triplicate on day 3 and day 7 and inhibition of growth is expressed as a percentage of the number of cells present in the experimental well divided by the number of cells in a control well.

Stability at acid pH = type: physicochemical
[2] = Solubility (water, lipid); type: physicochemical; details: own compounds
[3] = tested on: kidney cancer cell line, UMRC; assay: Inhibition of growth of kidney cancer cell line UMRC; type: cell-based; details: single agent, 7 days (FIG. 3)
Excerpt: (§2) To determine whether there is tumor type specificity of the inhibitory properties of analogues of Compound 100, retinoic acid and Trichostatin A, we measured their inhibitory effects as single agents against the GBM line U373, a breast cancer line, MCF-7 (obtained from ATCC) and a kidney cancer cell line, UMRC (UMRC obtained by Dr. Zhuang, NINDS, NIH from the Intramural Research Support Program, SAIC, National Cancer Institute, Frederick Cancer Research and Development Center).

[4] = tested on: breast cancer line, MCF-7; assay: Inhibition of growth of breast cancer cell line MCF-7; type: cell-based; details: single agent, 7 days (FIG. 5)
Excerpt: as §2

GBM cell line U373 [5] = assay: cells; type: cell-based, human
Protocol: To observe the effects Compound 100 in combination with retinoic acids, Compound 100 was combined with all-trans retinoic acid. […] The total number of cells is counted in the triplicate cultures at each dose and in controls after 7 days and the average number of cells and the standard deviation is determined.
as §1
Synergism (potentiation) of the inhibitory activity of two drugs in combination is said to be present when the percent survival in the presence of two drugs is less than the product of the percent survivals of the two drugs used alone at the same doses in the combination.

[6] = known cantharidin homologs, stated as known; cited from earlier work

SMILES	Inhibition of growth of cell line U373 (in words) (GBM cell line U373 [1]; 7 days)	Sensitivity of UMRC compared with U373 (in words) [3]	Inhibition of growth of MCF-7 (in words) [4]	melting point	other results
CCN1CCN(C(=O)C2C(C(=O)O)[C@H]3CC[C@@H]2O3)CC1 (stereo partly drawn) [Compound 105, 1-(3-Exocarboxy-7-oxabicyclo[2.2.1]heptane-2-exocarbonyl)-4-ethylpiperazine]	Increasing dosages demonstrate a greater inhibition of growth				Inhibitory value against U373, comparison of the two compounds (GBM cell line U373 [1]; 10 μM, seven days (FIG. 8)): identical inhibitory values; Inhibition of growth of cell line U373 (in words) (GBM cell line U373 [1]; 7 days, listed as compound 105): highly active; Inhibition of growth of cell line U373 (in words) (GBM cell line U373 [1]; after three days (FIG. 6)): Increasing dosages demonstrate a greater inhibition of growth; Stability at acid pH (in words) (Stability at acid pH): stable at acid pH; Water solubility (in words) [2]: water soluble
O=C(O)[C@@H]1[C@H](C(=O)O)[C@H]2CC[C@@H]1O2 [endothal]	Increasing dosages demonstrate a greater inhibition of growth; also recorded: modest inhibition of growth	less sensitive than the brain tumor line, U373	as sensitive as U373; also recorded: an inhibition in growth		IC50 (GBM cell line U373 [1]): 15 µM; Percent of Control, Observed (GBM cell line U373 [5]; END 10 uM, U373, 7 days (Table 3)): 65%
COc1ccc(CCN2CCC(NC(=O)C3C(C(=O)O)[C@H]4CC[C@@H]3O4)CC2)cc1 (stereo in doubt) [Compound 104, 3-(1-[2-(4-Methoxy-phenyl)-ethyl]piperidin-4-ylcarbamoyl)-7-oxa-bicyclo[2.2.1]-heptane-2-carboxylic acid]	less activity			140 to 142 °C	
CN(C)CCNC(=O)C1C(C(=O)O)[C@H]2CC[C@@H]1O2 (stereo partly drawn) [Compound 106]	less activity			48 to 50 °C	
CC(/C=C/C(=O)NO)=C\[C@@H](C)C(=O)c1ccc(N(C)C)cc1 [TSA, Trichostatin A]		less sensitive than the brain tumor line, U373	an inhibition in growth		Inhibition of growth of MCF-7 (in words) ([4]; listed as Trichostatin A): as sensitive as U373; Percent of Control, Observed (GBM cell line U373 [5]; TSA 0.033 μM (0.01 μg/ml), U373 (Table 4)): 71.6 +/− 0.4% of Control
O=C1OC(=O)[C@H]2[C@@H]1[C@H]1CC[C@H]2O1 [norcantharidin]	Increasing dosages demonstrate a greater inhibition of growth	less sensitive than the brain tumor line, U373	as sensitive as U373		IC50 (GBM cell line U373 [1]): 12 µM; Water solubility (in words) [6]: not
O=C(O)C1C(C(=O)N2CCN(Cc3ccccc3)CC2)[C@@H]2CC[C@H]1O2 (stereo in doubt) [Compound 103, 3-(4-Benzylpiperazine-1-carbonyl)-7-oxa-bicyclo[2.2.1]heptane-2-carboxylic acid]	less activity			> 190 °C (dec.)	
O=C1SC(=O)[C@H]2[C@@H]1[C@@H]1CC[C@H]2O1 [endothal thioanhydride, reference compound]	Increasing dosages demonstrate a greater inhibition of growth; also recorded: greatest inhibition of growth	less sensitive than the brain tumor line, U373	as sensitive as U373		IC50 (GBM cell line U373 [1]): 2.5 µM
O=C(O)C1C(C(=O)N2CCNCC2)[C@@H]2CC[C@H]1O2 (stereo in doubt) [Compound 101, 3-(Piperazine-1-carbonyl)-7-oxa-bicyclo[2.2.1]heptane-2-carboxylic acid]	less activity			> 240 °C (dec.)	
CC1=C(/C=C/C(C)=C/C=C/C(C)=C/C(=O)O)C(C)(C)CCC1 [ATRA, all-trans retinoic acid]		less sensitive than the brain tumor line, U373	an inhibition in growth		Inhibition of growth of MCF-7 (in words) ([4]; listed as all-trans retinoic acid): as sensitive as U373; activity at 25 µM (GBM cell line U373 [5]; Homo sapiens, U373 MG, 168 h, read-out: Percent of Control, Observed): 77%
COC(=O)C1C(C(=O)N2CCN(C)CC2)[C@@H]2CC[C@H]1O2 (stereo partly drawn)				105 to 107 °C	
CC1=C(/C=C/C(C)=C/C=C/C(C)=C\C(=O)O)C(C)(C)CCC1 [Cis-RA, 13-cis Retinoic Acid]					Percent of Control, Observed (GBM cell line U373 [5]; Cis-RA 50 μM, U373 (Table 4)): 93.3 +/− 2.2% of Control
C[C@@]12C(=O)OC(=O)[C@]1(C)[C@H]1CC[C@@H]2O1 [cantharidin]					Water solubility (in words) [6]: not
